The conditions of data set [1]: 1 h after the last of 16 daily clomipramine injections, 25 mg/kg IP.
Protocol: One h after the last administration of clomipramine animals were anesthetized with ketamine/xylazine, blood was taken by an intracardiac puncture for serum, and animals were then subjected to PBS-perfusion. […] Cervical and lumbar cords were snap frozen.
For preparation of samples, 100 pl of ice cold methanol were added to 100 pl of serum in each sample after addition of the internal standard maprotiline. The tubes were vortexed and left on ice for 10 min followed by centrifugation at 10,000×g for 4 min. An equal amount of distilled water was added to each supernatant. Spinal cord samples were each homogenized in 10 volumes of ice-cold 80% methanol. Twenty pl of o-phosphoric acid were added to all samples after addition of internal standard (maprotiline). The tubes were vortexed and left on ice for 10 min, followed by centrifugation at 10,000×g for 4 min and an equal volume of distilled water was added to each supernatant. […]
Calibration curves consisting of varying amounts of authentic clomipramine and N-desmethylclomipramine and the same fixed amount of maprotiline as added to the samples being analyzed were run in parallel through the procedure described above and the ratios of clomipramine and N-desmethylclomipramine to maprotiline were used to determine the amount of drug and metabolite in the serum and spinal cord samples.
Data set [2] concerns T-cells. Description: Proliferation of T-lymphocytes (3H-thymidine) in anti-CD3/anti-CD28 activated splenocytes. It counts as cell-based, mouse. As to conditions: Mus musculus, T-cell, 72 h; drug 10 μM, vs activated splenocytes; read-out: mean reduction of 3H-thymidine incorporation (T-cell proliferation). How it is done:
A previously published protocol was used for isolating and activating T-cells (Keough et al., Nature Comm 7:11312, 2016). Spleens from female C57B16 mice were harvested and after mechanical dissociation the cell suspension was passed through a 70 μm cell strainer and separated by Ficoll gradient (1800 RPM, 30 min). Splenocytes were plated (2.5×10^5 cells in 100 μl/well) in anti-CD3 antibody coated 96-well plates (1,000 ng m1^−1 plate-bound anti-CD3 and 1,000 ng m1^−1 anti-CD28 suspended in media) to activate T-cells. Directly before plating, wells were treated with respective drugs in a final concentration of 10 μM. Cells were cultured in RPMI 1640 medium, supplemented with 10% FBS, 1 μM sodium pyruvate, 2 mM L-alanyl-L-glutamine, 1% penicillin/streptomycin, 1% HEPES and 0.05 mM 2-mercaptoethanol (all supplements were from Invitrogen). After 48 h, ^3H-thymidine was added in a concentration of 1 μCi per well, and cells were harvested after 24 h on filter mats. Mats were then evaluated for radioactivity (counts per minute) using a liquid scintillation counter.

For data set [3], the system named is microglia. The following applies: shown previously; cited from earlier work.
The test system of data set [4] is human neurons. The data set can be described thus: Iron (FeSO4) mediated neurotoxicity screening, MAP-2 positive neurons counted. It counts as cell-based. As to conditions: Homo sapiens, Neuron; drug 10 μM 1 h before FeSO4 25 or 50 μM; MAP-2 neurons after 24 h; read-out: Drug % control (mean): number of neurons normalized to untreated control. Put shortly:
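Fetal human neurons (15-20 wk), plated with cytosine arabinoside, were pre-incubated 1 h with compounds (10 mM DMSO stocks) before FeSO4 at 25-50 μM final. Cells fixed a day later; MAP-2 immunostaining plus Hoechst nuclei imaged automatically, sites per well averaged; quadruplicates.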

Where a name gives a salt, the structure may show the parent alone.

Take `CNCCCN1c2ccccc2CCc2ccc(Cl)cc21` [desmethylclomipramine]: in data set [1], the mean serum concentration is 101 nM and the “mean spinal cord level” value amounted to 1.5 µM.
With `CN(C)CCC=C1c2ccccc2COc2ccccc21` [DOXEPIN HYDROCHLORIDE], the inhibition at 10 µM in data set [2] is 85.3%. In addition, the “microglial activation reduced to” value in data set [3] is reported as 46%. In addition, the viability at 10 µM in data set [4] came to 76.9%.

Source of the values: patent publication US20210393645A1, “TREATMENT FOR PROGRESSIVE MULTIPLE SCLEROSIS” (UTI LIMITED PARTNERSHIP, priority 2016, published 2021).
